Data published in patent US9556221B2, “N-acetyl amino acid ESTER derivatives of betulin and preparation method thereof” (Northeast Forestry University, priority 2014, dated 2017).

Columns and labels:
Type in all cases: cell-based
[1] = test system: Human colon tumor cell lines HT29; experiment: MTT assay, in vitro anti-tumor activity screening, HT29; settings: HT-29, HT29 colon tumor cell line, read-out: half inhibitory concentration IC50, HT29
Description: (§1) The present invention also relates to the application of the N-acetyl amino acid ester derivatives of betulin for the preparation of anti-tumor drugs.
(§2) Human colon tumor cell lines HT29, pancreatic cancer cell lines MPC2 and ovarian cancer cell lines MDAH2774 were selected to determine the half inhibitory concentrations (IC50s) of the N-acetyl amino acid ester derivatives of betulin, betulinic acid and betulin, and the results are shown in Table 2.

[2] = test system: pancreatic cancer cell lines MPC2; experiment: MTT assay, in vitro anti-tumor activity screening, MPC2; settings: Homo sapiens, MPC2 pancreatic cancer cell line, read-out: half inhibitory concentration IC50, MPC2
Description: as §1, §2

[3] = test system: ovarian cancer cell lines MDAH2774; experiment: MTT assay, in vitro anti-tumor activity screening, MDAH2774; settings: Homo sapiens, MDAH 2774, MDAH2774 ovarian cancer cell line, read-out: half inhibitory concentration IC50, MDAH2774
Description: as §1, §2

Row | Structure (SMILES) | IC50 [1] [µM] | IC50 [2] [µM] | IC50 [3] [µM]
1 | C=C(C)[C@@H]1CC[C@]2(CO)CC[C@]3(C)[C@H](CC[C@@H]4[C@@]5(C)CC[C@H](O)C(C)(C)[C@@H]5CC[C@]43C)[C@@H]12 [Betulin, Lup-20(29)-ene-3β,28-diol] | > 100 | > 100 | > 100
2 | C=C(C)[C@@H]1CC[C@]2(C(=O)O)CC[C@]3(C)[C@H](CC[C@@H]4[C@@]5(C)CC[C@H](O)C(C)(C)[C@@H]5CC[C@]43C)[C@@H]12 [Betulinic acid, reference compound] |  | 38.6 ± 2.91 | 39.5 ± 2.19
3 | C=C(C)[C@@H]1CC[C@]2(COC(=O)C(C)NC(C)=O)CC[C@]3(C)C(CC[C@@H]4[C@@]5(C)CC[C@H](O)C(C)(C)[C@@H]5CC[C@]43C)[C@@H]12 (some centres unmarked) [YWZ-002] | 6.58 ± 0.24 | 4.24 ± 0.23 | 10.6 ± 0.62
4 | C=C(C)[C@@H]1CC[C@]2(COC(=O)C(NC(C)=O)C(C)C)CC[C@]3(C)C(CC[C@@H]4[C@@]5(C)CC[C@H](O)C(C)(C)[C@@H]5CC[C@]43C)[C@@H]12 (some centres unmarked) [YWZ-003] | 14.1 ± 0.83 | 11.4 ± 0.89 | 10.9 ± 0.76
5 | C=C(C)[C@@H]1CC[C@]2(COC(=O)C3CCCN3C(C)=O)CC[C@]3(C)C(CC[C@@H]4[C@@]5(C)CC[C@H](O)C(C)(C)[C@@H]5CC[C@]43C)[C@@H]12 (some centres unmarked) [YWZ-004] | 8.88 ± 0.62 | 5.32 ± 0.21 | 2.13 ± 0.05
6 | C=C(C)[C@@H]1CC[C@]2(COC(=O)C(CC(C)C)NC(C)=O)CC[C@]3(C)C(CC[C@@H]4[C@@]5(C)CC[C@H](O)C(C)(C)[C@@H]5CC[C@]43C)[C@@H]12 (some centres unmarked) [YWZ-005] | 18.1 ± 1.51 | 19.7 ± 0.83 | 1.38 ± 0.04
7 | C=C(C)[C@@H]1CC[C@]2(COC(=O)C(NC(C)=O)C(C)CC)CC[C@]3(C)C(CC[C@@H]4[C@@]5(C)CC[C@H](O)C(C)(C)[C@@H]5CC[C@]43C)[C@@H]12 (some centres unmarked) [YWZ-006] | 15 ± 1.31 | 10.2 ± 0.69 | 7.26 ± 0.1
